Read-outs that look alike come from different tables or passages of the source.
Experiments:
[1] = test system: FGFR2-amplified SUM52 breast cancer cells; test: Cell proliferation assay (SRB); assay type: cell-based; settings: SUM52, 120 h, read-out: Cellular Anti-proliferative IC50, SUM52, 5 days drug exposure
panel of 456 kinases = test: Biochemical kinase selectivity screening (DiscoveRx KINOMEscan); assay type: binding
[2] = test system: FGFR1-amplified H520 non-small cell lung cancer cells; test: Cell proliferation assay (SRB); assay type: cell-based; settings: Homo sapiens, NCI-H520, 168 h, read-out: Cellular Anti-proliferative IC50, H520
[3] = test system: FGFR3-amplified SW780 bladder cancer cells; test: Cell proliferation assay (SRB); settings: Homo sapiens, SW780, 120 h
[4] = test system: FGFR1 in H520 cells (phospho-ERK1/2); test: Drug washout Western blot assay, H520 cells; assay type: cell-based; settings: for reversible or irreversible inhibition of FGFR1 in cells / concentration required to suppress FGFR1 signalling through phospho-ERK1/2: 2 hours exposure; for reversible or irreversible inhibition of FGFR1 in cells: 100, 300 and 600 nM, with and without washout; for concentration required to suppress FGFR1 signalling through phospho-ERK1/2: tested at 100, 300 and 600 nM; for phospho-ERK1/2 after extensive drug washout: washout prior to FGF-stimulation
H520 cells = test: Oxic and anoxic anti-proliferative activity of the prodrugs; settings: read-out: Cellular Anti-proliferative IC50, H520, Oxic; oxic conditions
SW780 cells = test: as above; assay type: cell-based; settings: Homo sapiens, SW780; oxic conditions; read-out: Cellular Anti-proliferative IC50, SW780, Oxic
SUM52 cells = test: as above; settings: read-out: Cellular Anti-proliferative IC50, SUM52, Oxic; oxic conditions
[5] = Pulse radiolysis of prodrugs; assay type: physicochemical
[6] = test system: FGFR2 in SUM52 cells (phospho-ERK1/2); test: Drug washout Western blot assay, SUM52 cells; assay type: cell-based; settings: for phospho-ERK1/2 after extensive drug washout: washout prior to FGF-stimulation
[7] = test system: FGFR4-amplified Hep3B hepatocellular carcinoma cells; test: Cell proliferation assay (SRB); assay type: cell-based; settings: Homo sapiens, Hep3B; read-out: Cellular Anti-proliferative IC50, Hep3B
FGFR2 = target: T1, FGFR2 (Homo sapiens, UniProt P21802); test: Isolated enzyme FRET-based Z-Lyte kinase inhibition assay; assay type: biochemical; settings: means from 3 independent experiments; read-out: Isolate Enzyme Inhibition IC50, FGFR2
T1 construct: purchased Invitrogen
Procedure: (§1) FGFR1-4 and the Z-Lyte Kinase Assay Kit were purchased from Invitrogen. The concentration gradients from 5.1×10^−11 to 1.0×10^−6 mol/L were used for all the test compounds. The experiments were performed according to the instructions of the manufacturer.
(§2) FGFR1-4 isolated enzyme activity was determined using the FRET-based Z-Lyte kinase inhibition assay. The data are the means from 3 independent experiments.

FGFR3 = target: T2, FGFR3 (Homo sapiens, UniProt P22607); test: as above; assay type: biochemical; settings: means from 3 independent experiments; read-out: Isolate Enzyme Inhibition IC50, FGFR3
T2 construct: purchased Invitrogen
Procedure: as §1, §2

FGFR1 = target: T3, FGFR1 (Homo sapiens, UniProt P11362); test: as above; assay type: biochemical; settings: means from 3 independent experiments; read-out: Isolate Enzyme Inhibition IC50, FGFR1
T3 construct: purchased Invitrogen
Procedure: as §1, §2

FGFR4 = target: T4, FGFR4 (Homo sapiens, UniProt P22455); test: as above; assay type: biochemical; settings: means from 3 independent experiments; read-out: Isolate Enzyme Inhibition IC50, FGFR4
T4 construct: purchased Invitrogen
Procedure: as §1, §2

[8] = test system: FGFR3 in SW780 cells (phospho-ERK1/2); test: Drug washout Western blot assay, SW780 cells; assay type: cell-based; settings: for phospho-ERK1/2 after extensive drug washout: washout prior to FGF-stimulation
[9] = target: T5, recombinant FGFR1 (C584S) kinase domain (Homo sapiens, UniProt P11362, C584S); test: FGFR1 (C584S) covalent binding protein mass spectrometry assay; settings: protein:inhibitor 1:10, 37° C.
T5 construct: made in house; host or cells: pETDuet vector, IPTG induction in Terrific Broth (bacterial)
Procedure: The previously cloned C488A/C584S FGFR1 construct was modified by site-directed mutagenesis to provide a gene encoding the C584S FGFR1 kinase domain with the cysteine at amino acid C488 reinstated. Expression and purification of this protein followed the protocol described above but with the addition of 10% glycerol to all buffers and a change of buffer pH to a value of 8.5. Protein for mass spectrometry was concentrated to ˜40 mg/ml and was mixed 1:1 (v/v) with glycerol, and then frozen at −20° C. or flash cooled in liquid nitrogen and stored at −80° C. until needed.
Protein samples were buffer exchanged to remove glycerol (the final buffer comprised 20 mM Tris-HCl pH 8.5, 10% (v/v) glycerol, 20 mM NaCl, 5 mM EDTA, 2 mM TCEP) and were mixed with each inhibitor at 1:10 molar ratio (protein:inhibitor). Final protein concentration was 20 μM. […] Samples were mixed with 90 μL of 0.1% formic acid to quench the reaction followed by flash cooling in liquid nitrogen. Samples were stored at −80° C. until needed. All experiments were carried out in triplicate.
Samples were subjected to liquid chromatography mass spectrometry (LC-MS) to show mass changes attributable to irreversible inhibition. Mass spectrometry experiments were performed at the University of Auckland Mass Spectrometry Center using an electropspray QSTAR® XL ESI quadrupole Time-of-Flight (QToF) MS system (Applied Biosystems) operated in positive ionization mode. The instrument was calibrated using Renin Substrate Standard (SCIEX), over the m/z range 100-2000. Protein/inhibitor samples were thawed and 2 μL volumes injected into a liquid chromatography (LC) BIOshell™ A400 Protein C4 HPLC column (10 cm×2.1 mm, 3.4 μm) attached to the mass spectrometer. […] Following elution, samples were directly injected into the mass spectrometer for separation and mass analysis. Mass spectrometry data were processed and analysed using the PeakView™ 2.1 software and the Bio Tool Kit plug-in (SCIEX) and covered an m/z range of 330-1600. Deconvolution calculations allowed visualisation of intact mass protein peaks and allowed peak area measurement to assess the percentage of protein covalently modified by each inhibitor at each time point. Data was plotted using GraphPad Prism 7 (GraphPad).

T2 sequence (P22607 23-806): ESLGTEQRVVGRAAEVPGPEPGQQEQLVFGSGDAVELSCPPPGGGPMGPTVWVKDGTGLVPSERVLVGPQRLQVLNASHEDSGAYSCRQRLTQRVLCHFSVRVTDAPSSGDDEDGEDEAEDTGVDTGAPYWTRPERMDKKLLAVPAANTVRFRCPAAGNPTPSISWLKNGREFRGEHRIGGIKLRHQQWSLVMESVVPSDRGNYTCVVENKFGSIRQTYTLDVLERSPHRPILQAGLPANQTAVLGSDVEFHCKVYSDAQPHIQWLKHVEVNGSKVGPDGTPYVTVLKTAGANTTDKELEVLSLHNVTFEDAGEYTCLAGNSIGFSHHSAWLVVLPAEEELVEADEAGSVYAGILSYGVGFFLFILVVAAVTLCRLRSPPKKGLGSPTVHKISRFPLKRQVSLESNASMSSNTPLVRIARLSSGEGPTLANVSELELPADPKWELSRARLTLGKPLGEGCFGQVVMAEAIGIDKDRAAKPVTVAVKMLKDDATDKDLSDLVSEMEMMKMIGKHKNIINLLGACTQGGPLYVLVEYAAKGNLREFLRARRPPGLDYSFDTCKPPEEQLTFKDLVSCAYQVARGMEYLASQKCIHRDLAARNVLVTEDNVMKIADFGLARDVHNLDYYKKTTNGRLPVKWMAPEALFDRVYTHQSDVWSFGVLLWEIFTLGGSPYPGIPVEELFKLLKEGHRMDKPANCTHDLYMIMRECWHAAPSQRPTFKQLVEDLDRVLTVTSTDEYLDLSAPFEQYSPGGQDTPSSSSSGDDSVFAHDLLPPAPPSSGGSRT
T5 sequence (P11362 with tags, fused parts or gaps C584S): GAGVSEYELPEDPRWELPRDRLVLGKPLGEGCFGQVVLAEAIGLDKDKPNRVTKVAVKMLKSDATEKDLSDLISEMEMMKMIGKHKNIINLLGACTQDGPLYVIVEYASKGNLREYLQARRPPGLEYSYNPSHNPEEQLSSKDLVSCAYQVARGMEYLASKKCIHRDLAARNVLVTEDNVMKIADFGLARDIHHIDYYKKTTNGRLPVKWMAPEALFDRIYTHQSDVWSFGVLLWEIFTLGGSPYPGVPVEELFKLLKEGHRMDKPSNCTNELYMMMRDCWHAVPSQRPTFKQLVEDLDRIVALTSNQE
T4 sequence (P22455 22-802): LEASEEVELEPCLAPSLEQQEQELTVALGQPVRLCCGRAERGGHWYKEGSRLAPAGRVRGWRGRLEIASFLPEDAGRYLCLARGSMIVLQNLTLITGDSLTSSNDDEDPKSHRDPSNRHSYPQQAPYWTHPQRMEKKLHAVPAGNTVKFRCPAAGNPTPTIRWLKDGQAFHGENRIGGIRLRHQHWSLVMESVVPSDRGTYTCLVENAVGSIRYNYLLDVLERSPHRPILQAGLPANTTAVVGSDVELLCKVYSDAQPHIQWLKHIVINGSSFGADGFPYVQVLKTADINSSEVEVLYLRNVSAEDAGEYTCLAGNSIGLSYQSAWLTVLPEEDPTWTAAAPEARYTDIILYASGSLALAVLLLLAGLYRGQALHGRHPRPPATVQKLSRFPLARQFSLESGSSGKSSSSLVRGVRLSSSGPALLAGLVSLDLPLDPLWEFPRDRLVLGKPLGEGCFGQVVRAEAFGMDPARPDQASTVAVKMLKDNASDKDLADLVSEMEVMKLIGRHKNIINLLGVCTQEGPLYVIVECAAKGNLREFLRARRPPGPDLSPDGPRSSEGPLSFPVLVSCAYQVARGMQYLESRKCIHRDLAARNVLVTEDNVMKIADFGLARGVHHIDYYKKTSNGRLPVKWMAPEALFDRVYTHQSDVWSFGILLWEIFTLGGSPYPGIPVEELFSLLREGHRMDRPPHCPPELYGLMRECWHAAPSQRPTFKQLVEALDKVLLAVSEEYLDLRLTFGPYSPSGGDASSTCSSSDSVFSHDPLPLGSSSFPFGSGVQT
T3 sequence (P11362 22-822): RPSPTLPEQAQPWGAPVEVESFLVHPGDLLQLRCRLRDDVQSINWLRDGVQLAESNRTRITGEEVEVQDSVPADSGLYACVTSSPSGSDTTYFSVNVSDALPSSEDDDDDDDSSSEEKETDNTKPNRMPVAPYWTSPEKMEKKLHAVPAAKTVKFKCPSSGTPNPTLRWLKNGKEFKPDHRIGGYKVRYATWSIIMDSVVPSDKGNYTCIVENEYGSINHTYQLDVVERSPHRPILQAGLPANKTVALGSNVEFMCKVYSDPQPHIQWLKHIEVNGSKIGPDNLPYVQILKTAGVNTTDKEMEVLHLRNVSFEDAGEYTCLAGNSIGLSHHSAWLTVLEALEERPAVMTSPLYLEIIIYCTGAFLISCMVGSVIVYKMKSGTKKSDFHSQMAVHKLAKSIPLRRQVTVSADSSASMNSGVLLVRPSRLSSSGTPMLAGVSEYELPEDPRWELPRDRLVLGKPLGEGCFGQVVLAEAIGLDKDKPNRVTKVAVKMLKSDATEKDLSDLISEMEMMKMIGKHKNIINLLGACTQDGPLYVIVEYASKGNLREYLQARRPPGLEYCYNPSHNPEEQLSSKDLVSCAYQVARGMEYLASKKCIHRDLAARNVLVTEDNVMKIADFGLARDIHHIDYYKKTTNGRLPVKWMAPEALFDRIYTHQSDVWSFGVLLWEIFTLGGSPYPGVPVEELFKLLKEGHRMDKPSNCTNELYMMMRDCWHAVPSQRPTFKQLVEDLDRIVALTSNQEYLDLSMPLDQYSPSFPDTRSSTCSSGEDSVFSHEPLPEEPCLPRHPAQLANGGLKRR
T1 sequence (P21802 22-821): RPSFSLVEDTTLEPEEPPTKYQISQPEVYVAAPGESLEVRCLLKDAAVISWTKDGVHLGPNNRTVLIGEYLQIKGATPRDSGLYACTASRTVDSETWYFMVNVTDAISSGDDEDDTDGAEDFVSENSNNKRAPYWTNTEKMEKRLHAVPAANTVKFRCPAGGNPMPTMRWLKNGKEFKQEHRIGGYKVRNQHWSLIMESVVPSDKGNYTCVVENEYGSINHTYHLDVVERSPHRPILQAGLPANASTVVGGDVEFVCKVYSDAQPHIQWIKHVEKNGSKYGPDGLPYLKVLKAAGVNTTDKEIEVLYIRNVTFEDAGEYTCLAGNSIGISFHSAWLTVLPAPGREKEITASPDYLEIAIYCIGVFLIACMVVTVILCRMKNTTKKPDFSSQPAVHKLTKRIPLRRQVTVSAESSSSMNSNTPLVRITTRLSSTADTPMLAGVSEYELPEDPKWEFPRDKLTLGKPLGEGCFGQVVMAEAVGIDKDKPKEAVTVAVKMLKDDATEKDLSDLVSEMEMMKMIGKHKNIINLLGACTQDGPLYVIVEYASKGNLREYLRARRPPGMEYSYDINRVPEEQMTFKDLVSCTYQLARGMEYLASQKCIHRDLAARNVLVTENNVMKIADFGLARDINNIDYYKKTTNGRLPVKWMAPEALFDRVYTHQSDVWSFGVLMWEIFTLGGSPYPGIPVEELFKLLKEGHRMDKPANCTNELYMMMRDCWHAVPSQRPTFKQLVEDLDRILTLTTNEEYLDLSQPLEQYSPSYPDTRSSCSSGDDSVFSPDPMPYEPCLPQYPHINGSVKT

For `COc1cc(OC)c(Cl)c(N2Cc3cnc(Nc4ccc(F)cc4)nc3N(C3CCN(C(=O)/C=C/CN(C)C)CC3)C2=O)c1Cl` [Compound 120, (E)-3-(2,6-dichloro-3,5-dimethoxyphenyl)-1-(1-(4-(dimethylamino)but-2-enoyl)piperidin-4-yl)-7-((4-fluorophenyl)amino)-3,4-dihydropyrimido[4,5-d]pyrimidin-2(1H)-one], the IC50 [1] was 0.8 nM, the “share of the non-mutant kinases studied with Percent Control <35” value (panel of 456 kinases; 1 uM, 33/403 kinases) was 8.2% and the “selectivity for the FGFR family” value (panel of 456 kinases; panel of 456 kinases) was “excellent selectivity”. For the same compound, the “S(35) selectivity score” value (panel of 456 kinases; set concentration of 1 uM) was 0.082, the IC50 [2] was 8.7 nM and the IC50 ([3]; read-out: Cellular Anti-proliferative IC50, SW780, 5 days drug exposure) was 16 nM. The “reversible or irreversible inhibition of FGFR1 in cells” value ([4]; H520) was “potent, irreversible inhibition”.

With `COc1cc(OC)c(Cl)c(N2Cc3cnc(NC(C)C)nc3N(C3CCN(C(=O)/C=C/C[N+](C)(C)Cc4c([N+](=O)[O-])ncn4C)CC3)C2=O)c1Cl.[Br-]` [Compound 202, (E)-4-(4-(3-(2,6-dichloro-3,5-dimethoxyphenyl)-7-(isopropylamino)-2-oxo-3,4-dihydropyrimido[4,5-d]pyrimidin-1(2H)-yl)piperidin-1-yl)-N,N-dimethyl-N-((1-methyl-4-nitro-1H-imidazol-5-yl)methyl)-4-oxobut-2-en-1-aminium bromide] the IC50 (H520 cells) was 1730 nM, the IC50 (SW780 cells) was 2120 nM and the “reversible or irreversible inhibition of FGFR1 in cells” value ([4]; H520) was “reversible inhibitors”. For the same compound, the IC50 (SUM52 cells) was 737 nM, the melting point was 171 to 174 °C and the “first order rate of fragmentation kfrag” value [5] was 26 s⁻¹.

For `CNc1ncc2c(n1)N([C@H]1CCN(C(=O)/C=C/C[N+](C)(C)Cc3c([N+](=O)[O-])ncn3C)C1)C(=O)N(c1c(Cl)c(OC)cc(OC)c1Cl)C2.[Br-]` [Compound 200, (S,E)-4-(3-(3-(2,6-dichloro-3,5-dimethoxyphenyl)-7-(methylamino)-2-oxo-3,4-dihydropyrimido[4,5-d]pyrimidin-1(2H)-yl)pyrrolidin-1-yl)-N,N-dimethyl-N-((1-methyl-4-nitro-1H-imidazol-5-yl)methyl)-4-oxobut-2-en-1-aminium bromide], the IC50 (H520 cells) was 3660 nM, the IC50 (SW780 cells) was 2640 nM and the “reversible or irreversible inhibition of FGFR1 in cells” value ([4]; H520) was “reversible inhibitor”. The “concentration required to suppress FGFR1 signalling through phospho-ERK1/2” value ([4]; H520) was 300 nM, the IC50 (SUM52 cells) was 229 nM and the melting point was 195 to 198 °C. For the same compound, the “first order rate of fragmentation kfrag” value [5] was 32 s⁻¹.

With `COc1cc(OC)c(Cl)c(N2Cc3cnc(NC(C)C)nc3N([C@H]3CCN(C(=O)/C=C/CN(C)C)C3)C2=O)c1Cl` [Compound 104, (S,E)-3-(2,6-dichloro-3,5-dimethoxyphenyl)-1-(1-(4-(dimethylamino)but-2-enoyl)pyrrolidin-3-yl)-7-(isopropylamino)-3,4-dihydropyrimido[4,5-d]pyrimidin-2(1H)-one] the “exposure concentration for irreversible inhibition (fully covalently bind the target) in cells” value ([6]; SUM52 (FGFR2), 30 minute exposure) was 1000 nM, the “inhibition of phosphorylation of ERK1/2, no washout” value (from here on “inhibition … no washout”) ([6]; SUM52, 100 nM, 30 min, then FGF-stimulation) was “complete inhibition” and the “phospho-ERK1/2 after extensive drug washout” value ([6]; SUM52, 100 nM, 30 min) was “restoration”. For the same compound, the “phospho-ERK1/2 after extensive drug washout” value ([6]; SUM52, 1000 nM, 30 min) was “essential full inhibition”, the IC50 [7] was 12 nM and the IC50 [1] was 1.4 nM. For the same compound, the IC50 [2] was 17 nM, the IC50 ([3]; read-out: Cellular Anti-proliferative IC50, SW780) was 11 nM and the “exposure concentration for irreversible inhibition (fully covalently bind the target) in cells” value ([4]; H520 (FGFR1), 30 minute exposure) was 1000 nM. For the same compound, the “inhibition … no washout” value ([4]; H520, 100 nM, 30 min, then FGF-stimulation) was “complete inhibition”, the “phospho-ERK1/2 after extensive drug washout” value ([4]; H520, 100 nM, 30 min) was “restoration” and the “phospho-ERK1/2 after extensive drug washout” value ([4]; H520, 1000 nM, 30 min) was “essential full inhibition”. The “reversible or irreversible inhibition of FGFR1 in cells” value ([4]; H520) was “potent, irreversible inhibition”, the “concentration required to suppress FGFR1 signalling through phospho-ERK1/2” value ([4]; H520) was 300 nM and the IC50 (FGFR2) was 23 nM. It also gave an IC50 (FGFR3) of 35 nM, an IC50 (FGFR1) of 1.1 nM and an IC50 (FGFR4) of 906 nM. The “exposure concentration for irreversible inhibition (fully covalently bind the target) in cells” value ([8]; SW780 (FGFR3), 30 minute exposure) was 1000 nM, the “inhibition … no washout” value ([8]; SW780, 100 nM, 30 min, then FGF-stimulation) was “complete inhibition” and the “phospho-ERK1/2 after extensive drug washout” value ([8]; SW780, 100 nM, 30 min) was “restoration”. For the same compound, the “phospho-ERK1/2 after extensive drug washout” value ([8]; SW780, 1000 nM, 30 min) was “essential full inhibition”, the “reversible or irreversible inhibition of FGFR3 in cells” value ([8]; SW780, 120 minutes exposure, 100 nM, with and without washout) was “reversible” and the “% Conversion to FGFR1 (C584S) covalent adduct after 120 minutes incubation” value [9] was 8%.
